# Results reported in article PMC10764104, “Discovery of Molecular Glue Degraders via Isogenic Morphological Profiling” (ACS Chemical Biology, 2023).
# Experiments:
# [1] = tested on: RKO WT; experiment: Quantitative expression proteomics to identify degradation targets; format: cell-based, human; conditions: 10 μM, 16 h, n = 2, and adjusted p < 0.01, over 8000 proteins quantified
# Description: We selected FL2-14 for target elucidation (circled in black in Figure 2E) based on three criteria (Table S4). First, FL2-14 has low cosine similarity with all of the CRBN-dependent controls (i.e., no thick blue edges). […] Third, it has a unique chemical structure, being the only CRBN binder with the tail group modification 14 predicted to have CRBN-dependent bioactivity (Figure 3A). To elucidate the target for FL2-14, we performed quantitative proteomics to evaluate changes in protein abundances upon treatment with FL2-14. […]
# Figure 3 FL2-14 is a selective GSPT2 molecular glue degrader. […] (B) DMSO-normalized quantitative proteomics after 16 h of treatment with FL2-14 (10 μM) in RKO WT (n = 2). […]
# of the sample sizes of (i.e. number of images in) RKO CRBN OE and RKO CRBN KO data. We, thus, normalized the U scores calculated to allow us to compare U scores for different treatments with varying sample sizes: […]
# Comparing the treatment‐centric features of compounds predicted to have CRBN‐dependent bioactivity. […] We then retrieve the matrix of Kendall’s τ‐b correlation coefficients calculated per feature for each compound. […]
# We then visualized the cosine similarities calculated on a network graph with NetworkX (https://networkx.org, version 3.1), using the spring_layout() with seed set to 500 and iterations set to 200. […]
# [2] = molecular target: T1, IKZF1 (Homo sapiens, UniProt Q13422); experiment: Western blot analysis of IKZF1 degradation in MV4.11 cells; format: cell-based; conditions: 16 h
# T1 construct: endogenous in cells; host or cells: MV4.11
# T1 sequence (Q96SW2 whole entry partner): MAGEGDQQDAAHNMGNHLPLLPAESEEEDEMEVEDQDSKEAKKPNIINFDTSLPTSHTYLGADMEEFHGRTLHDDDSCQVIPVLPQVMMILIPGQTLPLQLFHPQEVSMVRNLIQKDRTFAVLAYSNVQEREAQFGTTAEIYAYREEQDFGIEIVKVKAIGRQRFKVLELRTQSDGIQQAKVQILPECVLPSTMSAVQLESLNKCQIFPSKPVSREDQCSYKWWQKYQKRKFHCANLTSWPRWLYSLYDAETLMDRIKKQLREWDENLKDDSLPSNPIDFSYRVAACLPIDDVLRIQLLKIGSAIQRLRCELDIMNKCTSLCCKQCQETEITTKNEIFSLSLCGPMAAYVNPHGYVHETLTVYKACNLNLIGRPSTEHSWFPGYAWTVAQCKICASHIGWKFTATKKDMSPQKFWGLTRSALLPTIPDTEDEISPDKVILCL
# T1 sequence (Q16531 2-1140 partner limits assumed): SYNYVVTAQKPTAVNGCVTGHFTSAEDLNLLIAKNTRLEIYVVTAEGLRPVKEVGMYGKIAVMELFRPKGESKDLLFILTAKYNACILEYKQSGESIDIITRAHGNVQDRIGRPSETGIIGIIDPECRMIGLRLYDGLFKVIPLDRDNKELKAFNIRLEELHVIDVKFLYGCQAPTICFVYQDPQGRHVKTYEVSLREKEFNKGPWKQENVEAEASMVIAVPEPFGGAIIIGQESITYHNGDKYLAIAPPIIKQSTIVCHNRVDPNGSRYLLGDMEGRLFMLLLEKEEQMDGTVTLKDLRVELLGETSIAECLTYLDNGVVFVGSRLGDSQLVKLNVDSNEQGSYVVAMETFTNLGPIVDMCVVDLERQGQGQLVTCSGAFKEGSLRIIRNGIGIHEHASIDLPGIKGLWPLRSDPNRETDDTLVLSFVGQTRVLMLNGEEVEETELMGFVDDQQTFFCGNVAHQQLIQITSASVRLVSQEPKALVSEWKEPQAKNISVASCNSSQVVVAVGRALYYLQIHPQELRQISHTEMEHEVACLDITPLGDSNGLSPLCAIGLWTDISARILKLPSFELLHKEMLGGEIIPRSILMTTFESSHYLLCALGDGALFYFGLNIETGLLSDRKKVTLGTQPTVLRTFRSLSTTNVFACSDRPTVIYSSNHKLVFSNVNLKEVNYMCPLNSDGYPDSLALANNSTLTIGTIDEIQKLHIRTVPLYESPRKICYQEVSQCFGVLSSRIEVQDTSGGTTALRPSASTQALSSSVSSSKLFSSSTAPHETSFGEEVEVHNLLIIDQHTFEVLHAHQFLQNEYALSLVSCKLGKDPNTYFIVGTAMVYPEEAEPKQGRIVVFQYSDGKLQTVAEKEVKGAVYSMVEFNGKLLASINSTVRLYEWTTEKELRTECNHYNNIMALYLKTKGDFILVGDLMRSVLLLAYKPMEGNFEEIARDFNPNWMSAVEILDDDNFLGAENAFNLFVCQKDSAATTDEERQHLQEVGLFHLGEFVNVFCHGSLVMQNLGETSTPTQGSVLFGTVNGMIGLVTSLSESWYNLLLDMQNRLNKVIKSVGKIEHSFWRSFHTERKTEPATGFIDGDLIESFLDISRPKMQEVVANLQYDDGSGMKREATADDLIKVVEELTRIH
# T1 sequence (Q13422 whole entry): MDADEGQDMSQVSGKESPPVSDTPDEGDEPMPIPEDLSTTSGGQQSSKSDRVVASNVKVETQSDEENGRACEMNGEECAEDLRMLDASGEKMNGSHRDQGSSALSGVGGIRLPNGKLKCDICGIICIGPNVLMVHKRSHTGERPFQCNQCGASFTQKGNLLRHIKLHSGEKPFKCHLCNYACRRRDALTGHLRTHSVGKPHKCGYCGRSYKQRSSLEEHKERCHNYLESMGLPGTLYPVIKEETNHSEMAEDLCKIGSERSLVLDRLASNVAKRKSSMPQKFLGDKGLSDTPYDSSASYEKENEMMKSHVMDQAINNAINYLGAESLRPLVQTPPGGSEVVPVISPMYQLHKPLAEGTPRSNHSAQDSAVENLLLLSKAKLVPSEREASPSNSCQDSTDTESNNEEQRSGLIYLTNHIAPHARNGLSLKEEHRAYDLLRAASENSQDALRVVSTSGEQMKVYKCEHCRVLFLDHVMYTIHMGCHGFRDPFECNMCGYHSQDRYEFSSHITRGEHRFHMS
smiles,measurement,setting,value
CN(Cc1ncc(C2CC2)o1)S(=O)(=O)Oc1ccc(Nc2ccc3c(c2)C(=O)N(C2CCC(=O)NC2=O)C3=O)cc1 (centres unmarked) [FL2-14],proteins significantly downregulated (quantitative proteomics),[1],"GSPT2, FAM83F, and ZBTB39"
same,IKZF1 degradation,[2],did not induce degradation of IKZF1
